In patent publication US20190152957A1, “PYRIDIN-3-YL ACETIC ACID DERIVATIVES AS INHIBITORS OF HUMAN IMMUNODEFICIENCY VIRUS REPLICATION” (ViiV HEALTHCARE UK (NO.5) LIMITED, priority 2016, published 2019):

tested on: recombinant NL-RLuc virus (HIV NL4-3 with Renilla Luciferase gene) in MT-2 cells; assay: Inhibition of HIV replication (NL-RLuc virus, luciferase readout in MT-2 cells); assay type: cell-based; details: MT2, 120 h, read-out: Activity
Text: Inhibition of HIV Replication:
A recombinant NL-RLuc proviral clone was constructed in which a section of the nef gene from NL4-3 was replaced with the Renilla Luciferase gene. This virus is fully infectious and can undergo multiple cycles of replication in cell culture. In addition, the luciferous reporter provides a simple and easy method for quantitating the extent of virus growth and consequently, the antiviral activity of test compounds. The plasmid pNLRLuc contains the proviral NL-Rluc DNA cloned into pUC18 at the PvuII site. The NL-RLuc virus was prepared by transfection of 293T cells with the plasmid pNLRLuc. Transfections were performed using the LipofectAMINE PLUS kit from Invitrogen (Carlsbad, Calif.) according to the manufacturer and the virus generated was titered in MT-2 cells. For susceptibility analyses, the titrated virus was used to infect MT-2 cells in the presence of compound, and after 5 days of incubation, cells were processed and quantitated for virus growth by the amount of expressed luciferase. Assay media was RPMI 1640 supplemented with 10% heat inactivated fetal bovine serum (FBS), 100 units/ml penicillin G/100 units/ml streptomycin, 10 mM HEPES buffer pH 7.55 and 2 mM L-glutamine. The results from at least 2 experiments were used to calculate the EC50 values. Luciferase was quantitated using the Dual Luciferase kit from Promega (Madison, Wis.). Susceptibility of viruses to compounds was determined by incubation in the presence of serial dilutions of the compound. The 50% effective concentration (EC50) was calculated by using the exponential form of the median effect equation where (Fa)=1/[1+(ED50/drug conc.)^m](Johnson V A, Byington R T. Infectivity Assay. In Techniques in HIV Research. ed. Aldovini A, Walker BD. 71-76. New York: Stockton Press. 1990). Activity equal to A refers to a compound having an EC50≤100 nM, while B and C denote compounds having an EC50 between 100 nM and 1 uM (B) or >1 uM (C).

`Cc1nc(CN2CCc3cc(-c4c(C)nc(C)c([C@H](OC(C)(C)C)C(=O)O)c4N4CCC(C)(C)CC4)ccc3C2)c(C)o1` [Compound 18, (S)-2-(tert-butoxy)-2-(5-(2-((2,5-dimethyloxazol-4-yl)methyl)-1,2,3,4-tetrahydroisoquinolin-6-yl)-4-(4,4-dimethylpiperidin-1-yl)-2,6-dimethylpyridin-3-yl)acetic acid] and `Cc1noc(C)c1CN1CCc2cc(-c3c(C)nc(C)c([C@H](OC(C)(C)C)C(=O)O)c3N3CCC(C)(C)CC3)ccc2C1` [Compound 23, (S)-2-(tert-butoxy)-2-(5-(2-((3,5-dimethylisoxazol-4-yl)methyl)-1,2,3,4-tetrahydroisoquinolin-6-yl)-4-(4,4-dimethylpiperidin-1-yl)-2,6-dimethylpyridin-3-yl)acetic acid] cannot be ordered by EC50: < 0.1 µM for the first, < 0.1 µM for the second.

`Cc1nc(C)c([C@H](OC(C)(C)C)C(=O)O)c(N2CCC(C)(C)CC2)c1-c1ccc2c(c1)CCN(Cc1cnn(-c3ccc(F)cc3)c1)C2` [Compound 19, (S)-2-(tert-butoxy)-2-(4-(4,4-dimethylpiperidin-1-yl)-5-(2-((1-(4-fluorophenyl)-1H-pyrazol-4-yl)methyl)-1,2,3,4-tetrahydroisoquinolin-6-yl)-2,6-dimethylpyridin-3-yl)acetic acid] and `Cc1nc(C)c([C@H](OC(C)(C)C)C(=O)O)c(N2CCC(C)(C)CC2)c1-c1ccc2c(c1)CCN(Cc1ccc(C(F)(F)F)nc1)C2` [Compound 34, (S)-2-(tert-butoxy)-2-(4-(4,4-dimethylpiperidin-1-yl)-2,6-dimethyl-5-(2-((6-(trifluoromethyl)pyridin-3-yl)methyl)-1,2,3,4-tetrahydroisoquinolin-6-yl)pyridin-3-yl)acetic acid] cannot be ordered by EC50: < 0.1 µM for the first, < 0.1 µM for the second.

`Cc1nc(C)c([C@H](OC(C)(C)C)C(=O)O)c(N2CCC(C)(C)CC2)c1-c1ccc2c(c1)CCN(Cc1cnc(-c3ccccc3)[nH]1)C2` [Compound 20, (S)-2-(tert-butoxy)-2-(4-(4,4-dimethylpiperidin-1-yl)-2,6-dimethyl-5-(2-((2-phenyl-1H-imidazol-5-yl)methyl)-1,2,3,4-tetrahydroisoquinolin-6-yl)pyridin-3-yl)acetic acid] and `Cc1nc(C)c([C@H](OC(C)(C)C)C(=O)O)c(N2CCC(C)(C)CC2)c1-c1ccc2c(c1)CCN(Cc1cc(-c3ccccc3)on1)C2` [Compound 25, (S)-2-(tert-butoxy)-2-(4-(4,4-dimethylpiperidin-1-yl)-2,6-dimethyl-5-(2-((5-phenylisoxazol-3-yl)methyl)-1,2,3,4-tetrahydroisoquinolin-6-yl)pyridin-3-yl)acetic acid] cannot be ordered by EC50: < 0.1 µM for the first, < 0.1 µM for the second.

First: CCc1ncc(CN2CCc3cc(-c4c(C)nc(C)c([C@H](OC(C)(C)C)C(=O)O)c4N4CCC(C)(C)CC4)ccc3C2)[nH]1 [Compound 21, (S)-2-(tert-butoxy)-2-(4-(4,4-dimethylpiperidin-1-yl)-5-(2-((2-ethyl-1H-imidazol-5-yl)methyl)-1,2,3,4-tetrahydroisoquinolin-6-yl)-2,6-dimethylpyridin-3-yl)acetic acid]
Second: Cc1nc(C)c([C@H](OC(C)(C)C)C(=O)O)c(N2CCC(C)(C)CC2)c1-c1ccc2c(c1)CCN(Cc1ccn[nH]1)C2 [Compound 26, (S)-2-(5-(2-((1H-pyrazol-5-yl)methyl)-1,2,3,4-tetrahydroisoquinolin-6-yl)-4-(4,4-dimethylpiperidin-1-yl)-2,6-dimethylpyridin-3-yl)-2-(tert-butoxy)acetic acid]
The EC50 of the first is higher: > 1 µM for the first, < 0.1 µM for the second.

`CCn1cc(CN2CCc3cc(-c4c(C)nc(C)c([C@H](OC(C)(C)C)C(=O)O)c4N4CCC(C)(C)CC4)ccc3C2)c(C)n1` [Compound 22, (S)-2-(tert-butoxy)-2-(4-(4,4-dimethylpiperidin-1-yl)-5-(2-((1-ethyl-3-methyl-1H-pyrazol-4-yl)methyl)-1,2,3,4-tetrahydroisoquinolin-6-yl)-2,6-dimethylpyridin-3-yl)acetic acid] and `Cc1nc(C)c([C@H](OC(C)(C)C)C(=O)O)c(N2CCC(C)(C)CC2)c1-c1ccc2c(c1)CCN(Cc1nn(C)cc1Cl)C2` [Compound 24, (S)-2-(tert-butoxy)-2-(5-(2-((4-chloro-1-methyl-1H-pyrazol-3-yl)methyl)-1,2,3,4-tetrahydroisoquinolin-6-yl)-4-(4,4-dimethylpiperidin-1-yl)-2,6-dimethylpyridin-3-yl)acetic acid] cannot be ordered by EC50: < 0.1 µM for the first, < 0.1 µM for the second.

First: Cc1nc(C)c([C@H](OC(C)(C)C)C(=O)O)c(N2CCC(C)(C)CC2)c1-c1ccc2c(c1)CCN(Cc1c[nH]nn1)C2 [Compound 27, (S)-2-(5-(2-((1H-1,2,3-triazol-4-yl)methyl)-1,2,3,4-tetrahydroisoquinolin-6-yl)-4-(4,4-dimethylpiperidin-1-yl)-2,6-dimethylpyridin-3-yl)-2-(tert-butoxy)acetic acid]
Second: Cc1nc(C)c([C@H](OC(C)(C)C)C(=O)O)c(N2CCC(C)(C)CC2)c1-c1ccc2c(c1)CCN(Cc1cccnn1)C2 [Compound 36, (S)-2-(tert-butoxy)-2-(4-(4,4-dimethylpiperidin-1-yl)-2,6-dimethyl-5-(2-(pyridazin-3-ylmethyl)-1,2,3,4-tetrahydroisoquinolin-6-yl)pyridin-3-yl)acetic acid]
The EC50 of the first is higher: 0.1 to 1 µM for the first, < 0.1 µM for the second. The second is the more potent here.

`Cc1nc(C)c([C@H](OC(C)(C)C)C(=O)O)c(N2CCC(C)(C)CC2)c1-c1ccc2c(c1)CCN(Cc1ccnc(Cl)c1F)C2` [Compound 28, (S)-2-(tert-butoxy)-2-(5-(2-((2-chloro-3-fluoropyridin-4-yl)methyl)-1,2,3,4-tetrahydroisoquinolin-6-yl)-4-(4,4-dimethylpiperidin-1-yl)-2,6-dimethylpyridin-3-yl)acetic acid] and `Cc1nc(C)c([C@H](OC(C)(C)C)C(=O)O)c(N2CCC(C)(C)CC2)c1-c1ccc2c(c1)CCN(Cc1ccc(Cl)nc1Cl)C2` [Compound 32, (S)-2-(tert-butoxy)-2-(5-(2-((2,6-dichloropyridin-3-yl)methyl)-1,2,3,4-tetrahydroisoquinolin-6-yl)-4-(4,4-dimethylpiperidin-1-yl)-2,6-dimethylpyridin-3-yl)acetic acid] cannot be ordered by EC50: < 0.1 µM for the first, < 0.1 µM for the second.

`CCOc1ncccc1CN1CCc2cc(-c3c(C)nc(C)c([C@H](OC(C)(C)C)C(=O)O)c3N3CCC(C)(C)CC3)ccc2C1` [Compound 29, (S)-2-(tert-butoxy)-2-(4-(4,4-dimethylpiperidin-1-yl)-5-(2-((2-ethoxypyridin-3-yl)methyl)-1,2,3,4-tetrahydroisoquinolin-6-yl)-2,6-dimethylpyridin-3-yl)acetic acid] and `COc1ncccc1CN1CCc2cc(-c3c(C)nc(C)c([C@H](OC(C)(C)C)C(=O)O)c3N3CCC(C)(C)CC3)ccc2C1` [Compound 35, (S)-2-(tert-butoxy)-2-(4-(4,4-dimethylpiperidin-1-yl)-5-(2-((2-methoxypyridin-3-yl)methyl)-1,2,3,4-tetrahydroisoquinolin-6-yl)-2,6-dimethylpyridin-3-yl)acetic acid] cannot be ordered by EC50: < 0.1 µM for the first, < 0.1 µM for the second.

`COc1cccc(CN2CCc3cc(-c4c(C)nc(C)c([C@H](OC(C)(C)C)C(=O)O)c4N4CCC(C)(C)CC4)ccc3C2)n1` [Compound 30, (S)-2-(tert-butoxy)-2-(4-(4,4-dimethylpiperidin-1-yl)-5-(2-((6-methoxypyridin-2-yl)methyl)-1,2,3,4-tetrahydroisoquinolin-6-yl)-2,6-dimethylpyridin-3-yl)acetic acid] and `COc1cc(CN2CCc3cc(-c4c(C)nc(C)c([C@H](OC(C)(C)C)C(=O)O)c4N4CCC(C)(C)CC4)ccc3C2)ccn1` [Compound 31, (S)-2-(tert-butoxy)-2-(4-(4,4-dimethylpiperidin-1-yl)-5-(2-((2-methoxypyridin-4-yl)methyl)-1,2,3,4-tetrahydroisoquinolin-6-yl)-2,6-dimethylpyridin-3-yl)acetic acid] cannot be ordered by EC50: < 0.1 µM for the first, < 0.1 µM for the second.

`COc1ncc(CN2CCc3cc(-c4c(C)nc(C)c([C@H](OC(C)(C)C)C(=O)O)c4N4CCC(C)(C)CC4)ccc3C2)cn1` [Compound 33, (S)-2-(tert-butoxy)-2-(4-(4,4-dimethylpiperidin-1-yl)-5-(2-((2-methoxypyrimidin-5-yl)methyl)-1,2,3,4-tetrahydroisoquinolin-6-yl)-2,6-dimethylpyridin-3-yl)acetic acid] and `Cc1nc(C)c([C@H](OC(C)(C)C)C(=O)O)c(N2CCC(C)(C)CC2)c1-c1ccc2c(c1)CCN(Cc1ncco1)C2` [Compound 37, (S)-2-(tert-butoxy)-2-(4-(4,4-dimethylpiperidin-1-yl)-2,6-dimethyl-5-(2-(oxazol-2-ylmethyl)-1,2,3,4-tetrahydroisoquinolin-6-yl)pyridin-3-yl)acetic acid] cannot be ordered by EC50: < 0.1 µM for the first, < 0.1 µM for the second.

same assay, conditions: MT2, 120 h, read-out: EC50 μM

Point of comparison: `COc1ncc(CN2CCc3cc(-c4c(C)nc(C)c([C@H](OC(C)(C)C)C(=O)O)c4N4CCC(C)(C)CC4)ccc3C2)cn1` [Compound 33, (S)-2-(tert-butoxy)-2-(4-(4,4-dimethylpiperidin-1-yl)-5-(2-((2-methoxypyrimidin-5-yl)methyl)-1,2,3,4-tetrahydroisoquinolin-6-yl)-2,6-dimethylpyridin-3-yl)acetic acid], EC50 0.008 µM. Against it:
- CCc1ncc(CN2CCc3cc(-c4c(C)nc(C)c([C@H](OC(C)(C)C)C(=O)O)c4N4CCC(C)(C)CC4)ccc3C2)[nH]1 [Compound 21, (S)-2-(tert-butoxy)-2-(4-(4,4-dimethylpiperidin-1-yl)-5-(2-((2-ethyl-1H-imidazol-5-yl)methyl)-1,2,3,4-tetrahydroisoquinolin-6-yl)-2,6-dimethylpyridin-3-yl)acetic acid] — 190-fold higher, 1.54 µM
- Cc1nc(C)c([C@H](OC(C)(C)C)C(=O)O)c(N2CCC(C)(C)CC2)c1-c1ccc2c(c1)CCN(Cc1cc(-c3ccccc3)on1)C2 [Compound 25, (S)-2-(tert-butoxy)-2-(4-(4,4-dimethylpiperidin-1-yl)-2,6-dimethyl-5-(2-((5-phenylisoxazol-3-yl)methyl)-1,2,3,4-tetrahydroisoquinolin-6-yl)pyridin-3-yl)acetic acid] — 1.5-fold higher, 0.012 µM
